# US10226514B2, “Methods and compositions for reducing blood glucose levels” (The Children's Medical Center Corporation, priority 2011, dated 2019)
# “Also recorded” adds a separate entry of the source.
# Tests used:
# [1] = test system: XBP1s; test: XBP1s phosphorylation at Thr48 and Ser61 in cells (MS/MS, phospho-specific antibodies); format: cell-based, mouse; conditions: anisomycin 25 ng/ml
# Experimental: MEFs were infected with flag-tagged XBP1s expressing adenovirus and treated with anisomycin (25 ng/ml) for 2 h. Cells were washed with ice-cold PBS and lysed with RIPA buffer (50 mM Tris-HCl, pH 7.5; 2 mM EGTA; 0.3% CHAPS; 100 mM NaF; 10 mM Na4P2O7; 1 mM Na3VO4; 10 μg/ml Leupeptin; 10 μg/ml Aprotinin; 2 mM PMSF and 20 nM Okadaic acid). After overnight incubation with anti-flag antibody, Protein A sepharose beads were added for additional 2 h at 4° C. Immunoprecipates were washed three times with RIPA buffer containing 150 mM NaCl and boiled for 5 min in 2× Laemmli buffer for elution of immunoprecipitated XBP1s. Samples were resolved in SDS-PAGE and stained with Coomassie blue (Bio-Rad). Protein from Coomassie-stained gel bands was digested with trypsin and the resulting peptide mixtures were subjected to microcapillary liquid chomatography tandem mass spectrometry (LC-MS/MS). MS/MS spectra were assigned by searching them with the XBP1s protein sequence using the SEQUEST algorithm.
# Similar results were obtained from XBP1s^Ser61 phosphorylation.
# [2] = test system: p38 MAPK; test: p38 MAPK phosphorylation in anisomycin-treated knock-out cells; format: cell-based
# From the text: It is known that MAPK kinase kinase (MKK) 4 and 7 are upstream kinases responsible for JNK activation (Tournier, C., et al. (2001) Genes Dev 15:1419-1426; Brancho, D., et al. (2003) Genes Dev 17:1969-1978) and anisomycin or TNFα cannot activate JNK in MKK4 and 7 double knock out cells (MKK4,7^−/−) (Tournier, C., et al. (2001) Genes Dev 15:1419-1426; Schaeffer, H. J. & Weber, M. J. (1999) Mol Cell Biol 19:2435-2444). In order to determine whether XBP1s can be regulated by anisomycin treatment in MKK4,7^−/− cells, these cells, along with their controls, were treated with anisomycin after XBP is expression. […] Furthermore, the experiments were repeated in JNK1,2^−/− and MKK4,7^−/− cells with TNFα. […] Finally, an MKK7-JNK1 fusion protein, previously shown to be a specific activator of JNK (Lei, K., et al. (2002) Mol Cell Biol 22:4929-4942), was used to investigate whether activation of JNK alone can have effect on XBP1s.
smiles,measurement,setting,value
COc1ccc(C[C@H]2NC[C@H](O)[C@H]2OC(C)=O)cc1 [anisomycin],phosphorylation of XBP1s at Ser61,[1],increases phosphorylation of XBP1s at Ser61; also recorded: strongly induced phosphorylation of XBP1s at Ser61
same,phosphorylation of XBP1s at Thr48,[1],greatly increased phosphorylation of the Thr48 residue
same,p38 MAPK phosphorylation,"[2]; JNK1,2−/− cells",marked increase in p38 MAPK phosphorylation
same,p38 MAPK activation,"[2]; MKK4,7−/− cells",significantly increased
